What all share (type): cell-based
In data set [1] the target is Cellular tumor antigen p53 (Homo sapiens) (UniProt P04637). Nature of the data set: Inhibition of p53 (unknown origin) expressed in mouse JB6 Cl41 cells after 24 hrs by luciferase reporter gene assay.
For data set [2], the species on record is Homo sapiens. Nature of the data set: (§1) Inhibition of NFkB (unknown origin) expressed in mouse JB6 Cl41 cells after 24 hrs by luciferase reporter gene assay. In general terms: Reporter assays use an easily measured gene product as a stand-in for the process of interest.
In data set [3] the target is Transcription factor Jun (Homo sapiens) (UniProt P05412). Nature of the data set: Inhibition of AP-1 (unknown origin) expressed in mouse JB6 Cl41 cells after 24 hrs by luciferase reporter gene assay.
Data set [4] shares this target. Nature of the data set: Inhibition of AP-1 (unknown origin) expressed in mouse JB6 Cl41 cells at 25 uM after 24 hrs by luciferase reporter gene assay relative to control.
Data set [5] is filed under the species Homo sapiens. The data set can be described thus: Inhibition of NFkB (unknown origin) expressed in mouse JB6 Cl41 cells at 25 uM after 24 hrs by luciferase reporter gene assay relative to control.
Data set [6] can be described thus: Cytotoxicity against mouse JB6 Cl41 cells after 24 hrs assessed as reduction in cell viability at 25 to 37 uM by MTS assay. In general terms: Formazan colour is commonly taken as a measure of viable cells.
Data set [7] can be described thus: as §1. The following applies: Homo sapiens, JB6 Cl41, 24 h.
A short description of data set [8]: Cytotoxicity against mouse JB6 Cl41 cells after 24 hrs assessed as reduction in cell viability at 6 to 12 uM by MTS assay.

Experimental findings from ChEMBL document CHEMBL4382266, “Melonoside B and Melonosins A and B, Lipids Containing Multifunctionalized ω-Hydroxy Fatty Acid Amides from the Far Eastern Marine Sponge Melonanchora kobjakovae” (J Nat Prod, 2018) are described below.

Structures are written as SMILES. Active and inactive are the calls of the source. No cut-off for these calls is given here.

Sequence of Transcription factor Jun (Homo sapiens) (P05412 whole entry): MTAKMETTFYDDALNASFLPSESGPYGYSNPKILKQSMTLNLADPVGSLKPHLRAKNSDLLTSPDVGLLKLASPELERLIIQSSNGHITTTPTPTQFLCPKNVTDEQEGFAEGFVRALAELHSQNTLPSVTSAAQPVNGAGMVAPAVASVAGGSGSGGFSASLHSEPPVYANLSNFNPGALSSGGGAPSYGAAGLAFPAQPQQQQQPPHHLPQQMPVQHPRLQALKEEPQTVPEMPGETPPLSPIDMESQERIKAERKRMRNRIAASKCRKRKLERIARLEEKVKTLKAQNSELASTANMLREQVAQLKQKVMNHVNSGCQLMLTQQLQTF
Sequence of Cellular tumor antigen p53 (Homo sapiens) (P04637 whole entry, looked up): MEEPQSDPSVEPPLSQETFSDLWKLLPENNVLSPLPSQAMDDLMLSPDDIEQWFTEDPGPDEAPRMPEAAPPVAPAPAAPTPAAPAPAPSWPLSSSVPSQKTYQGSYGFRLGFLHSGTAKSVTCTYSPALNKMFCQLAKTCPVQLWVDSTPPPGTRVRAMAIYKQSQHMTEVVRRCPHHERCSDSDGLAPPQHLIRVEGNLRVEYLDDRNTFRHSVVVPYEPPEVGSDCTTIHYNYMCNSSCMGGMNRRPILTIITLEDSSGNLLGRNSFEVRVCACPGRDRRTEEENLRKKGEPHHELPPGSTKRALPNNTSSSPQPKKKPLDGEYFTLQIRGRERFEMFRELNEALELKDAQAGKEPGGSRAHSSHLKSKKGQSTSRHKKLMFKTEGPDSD

In the case of `CO[C@@H](CC/C=C\CCCCC(=O)CCCCCCC(=O)CC/C=C\CCCCCCO[C@@H]1O[C@H](C(=O)O)[C@@H](O)[C@H](O)[C@H]1O)C(=O)NCCc1ccc(O)cc1`, the inhibition result (in data set [1]; in the data set filed under Homo sapiens [2]; in data set [3]) was “inactive” each time.
As to `CO[C@@H](CC/C=C\CCCCC(=O)CCCCC(=O)CCCCCCCCCCO[C@@H]1O[C@H](C(=O)O)[C@@H](O)[C@H](O)[C@H]1O)C(=O)NCCc1ccc(O)cc1`, the inhibition entry (in data set [1]; in the data set listed under Homo sapiens [2]; in data set [3]) was “inactive” in each case.
As to `CO[C@@H](CC/C=C\CCCCC(=O)CCCCC(=O)CCCCCCCCCCO)C(=O)NCCc1ccc(O)cc1`, the inhibition – broadly, how much of the control response was suppressed – in data set [4] came to 87%; in the data set listed under Homo sapiens [5], 67%. Moreover, the inhibition entry in data set [1] was “inactive”. Moreover, the Activity entry in data set [6] is “Non-Toxic”.
Consider `CO[C@@H](CC/C=C\CCCCC(=O)CCCCCCC(=O)CC/C=C\CCCCCCO)C(=O)NCCc1ccc(O)cc1`, for which, in data set [1], the inhibition entry is “inactive”. Moreover, the IC50 (as a rule, the concentration needed to halve the response being measured) in data set [7] was found to be 7.2 µM. Also, the Activity result in data set [8] is given as “Non-Toxic”.
